Measurements taken from BigSolDB 2.1.

COc1c(C)c2c(c(O)c1C/C=C(\C)CCC(=O)OCCN1CCOCC1)C(=O)OC2
solubility (mole fraction)
Settings	in DMSO	in ethanol	in ethyl acetate	in ethylene glycol	in isopropanol	in n-butanol	in propylene glycol	in transcutol	in water
298.2 K	0.023	0.00613	0.0689	0.000715	0.00852	0.0108	0.00105	0.0393	1.75e-06
303.2 K	0.0272	0.00676	0.0744	0.000858	0.00934	0.0119	0.00126	0.0421	2.29e-06
308.2 K	0.0328	0.00749	0.0802	0.00103	0.0102	0.0132	0.00147	0.0452	2.87e-06
313.2 K	0.0388	0.00833	0.0856	0.0012	0.0111	0.0144	0.00168	0.0486	3.49e-06
318.2 K	0.0439	0.00906	0.0928	0.0014	0.0121	0.0159	0.00193	0.0522	4.16e-06

Settings	solubility (mole fraction)
in PEG-400, 298.2 K	0.0271
in PEG-400, 303.2 K	0.0312
in PEG-400, 308.2 K	0.0355
in PEG-400, 313.2 K	0.0399
in PEG-400, 318.2 K	0.0449
